Read-outs that look alike come from different tables or passages of the source.
Assay: PK of topical ocular sodium phosphate-based Gel Drop, concentrations 1 hour after last dose
Format: in vivo, Dutch-belted rabbits
Details: Dutch-belted, rabbit
Text: The Gel Drop of Compound-I was applied to eyes of Dutch-belted rabbits.

SMILES: Cl.NC(=O)c1c(OCc2c(F)cc(Br)cc2F)nsc1NC(=O)NCCCCN1CCCC1 [Compound-I, 3-[(4-bromo-2,6-difluorophenyl)methoxy]-5-[[[[4-(1-pyrrolidinyl)butyl]amino]carbonyl]amino]-4-isothiazolecarboxamide hydrochloride]
- concentration at 1 h (choroid, 2 mg/ml, pH 6, 2 mg/ml pH 6 Phos 0.05% BAK 0.005% Gly 2% PS80 1% Osmo 261, 3x/day 5 days, read-out: MEAN [choroid]): 559 nM
- concentration at 1 h (choroid, 2 mg/ml, pH 6, 2 mg/ml pH 6.0 Phos 0.05% BAK 0.005% Gly 2%, 3x/day 5 days, read-out: MEAN [choroid]): 528 nM
- concentration at 1 h (choroid, 2 mg/ml, pH 6, 2 mg/ml pH 6.0 Phos 0.1% BAK 0.005% Gly 2%, 3x/day 5 days, read-out: MEAN [choroid]): 525 nM
- concentration at 1 h (choroid, 2 mg/ml, pH 6, 2 mg/ml pH 6 Phos 0.2% BAK 0.005% Gly 2% PS80 1% Osmo 281, 3x/day 5 days, read-out: MEAN [choroid]): 357 nM
- concentration at 1 h (choroid, 2 mg/ml, pH 6, 2 mg/ml pH 6.0 Phos 0.2% BAK 0.005% Gly 2%, 3x/day 5 days, read-out: MEAN [choroid]): 532 nM
- concentration at 1 h (choroid, 2 mg/ml, pH 6.1, 2 mg/ml pH 6.1 BAK 0.005% Gly 2% Osmo 229, 3x/day 5 days, read-out: MEAN [choroid]): 462 nM
- concentration at 1 h (choroid, 2 mg/ml, pH 6.1, 2 mg/ml pH 6.1 Phos 0.05% BAK 0.005% Gly 2% PS80 1% Tylox 0.1% Osmo 239, 3x/day 5 days, read-out: MEAN [choroid]): 660 nM
- concentration at 1 h (choroid, 2 mg/ml, pH 6.1, 2 mg/ml pH 6.1 Phos […] Osmo 22, 3x/day 5 days, read-out: MEAN [choroid]): 356 nM
- concentration at 1 h (choroid, 2 mg/ml, pH 6.1, 2 mg/ml pH 6.1 Phos […] Osmo 34, 3x/day 4 days, read-out: MEAN [choroid]): 466 nM
- concentration at 1 h (choroid, 4 mg/ml, pH 6, 4 mg/ml pH 6.0 Phos 0.2% BAK 0.005% Gly 2%, 3x/day 5 days, read-out: MEAN [choroid]): 596 nM
- concentration at 1 h (choroid, 5 mg/ml, pH 6, 5 mg/ml pH 6 Phos 0.2% BAK 0.005% Gly 2% Osmo 273, 3x/day 5 days, read-out: MEAN [choroid]): 1160 nM
- concentration at 1 h (choroid, 5 mg/ml, pH 6, 5 mg/ml pH 6 Phos 0.2% BAK 0.005% Gly 2% PS80 1% Polox 0.2% Osmo 288, 3x/day 5 days, read-out: MEAN [choroid]): 612 nM
- concentration at 1 h (choroid, 6 mg/ml, pH 5.9, 6 mg/ml pH 5.9 Phos 0.05% BAK 0.005% Gly 2% PS80 1% Tylox 0.1% Polox 0.2% Osmo 270, 3x/day 4 days, read-out: MEAN [choroid]): 22.4 nM
- concentration at 1 h (choroid, 6 mg/ml, pH 5.9, 6 mg/ml pH 5.9 Phos […] Osmo 80, 3x/day 4 days, read-out: MEAN [choroid]): 823 nM
- concentration at 1 h (choroid, 6 mg/ml, pH 6.1, 6 mg/ml pH 6.1 Phos 0.05% BAK 0.005% Gly 2% PS80 1% Tylox 0.1% Osmo 248, 3x/day 5 days, read-out: MEAN [choroid]): 779 nM
- concentration at 1 h (plasma, 1 mg/ml, pH 6, 1 mg/ml pH 6.0 Phos 0.05% BAK 0.005% Gly 2% PS80 0.01% Tylox 0.2%, 3x/day 5 days, read-out: [plasma]): 3.49 nM
- concentration at 1 h (plasma, 1 mg/ml, pH 6, 1 mg/ml pH 6 Phos 0.05% BAK 0.005% Gly 2%, 3x/day 5 days, read-out: [plasma]): 4.45 nM
- concentration at 1 h (plasma, 1 mg/ml, pH 6, 1 mg/ml pH 6.0 Phos 0.2% BAK 0.005% Gly 2% PS80 1% Tylox 0.2%, 3x/day 5 days, read-out: [plasma]): 2.89 nM
- concentration at 1 h (plasma, 1 mg/ml, pH 6, 1 mg/ml pH 6.0 Phos 0.2% BAK 0.005% Gly 2%, 3x/day 5 days, read-out: [plasma]): 3.97 nM
- concentration at 1 h (plasma, 2 mg/ml, pH 6, 2 mg/ml pH 6 BAK 0.005% Gly 2% Osmo 232, 3x/day 5 days, read-out: [plasma]): 5.41 nM
- concentration at 1 h (plasma, 2 mg/ml, pH 6, 2 mg/ml pH 6.0 Phos 0.02% BAK 0.005% Gly 2% PS80 1% Tylox 0.2%, 3x/day 5 days, read-out: [plasma]): 4.46 nM
- concentration at 1 h (plasma, 2 mg/ml, pH 6, 2 mg/ml pH 6 Phos 0.05% BAK 0.005% Gly 2% Osmo 244, 3x/day 5 days, read-out: [plasma]): 5.92 nM
- concentration at 1 h (plasma, 2 mg/ml, pH 6, 2 mg/ml pH 6 Phos 0.05% BAK 0.005% Gly 2% PS80 1% Osmo 261, 3x/day 5 days, read-out: [plasma]): 4.15 nM
- concentration at 1 h (plasma, 2 mg/ml, pH 6, 2 mg/ml pH 6.0 Phos 0.05% BAK 0.005% Gly 2% PS80 1% Tylox 0.2%, 3x/day 5 days, read-out: [plasma]): 4.36 nM
- concentration at 1 h (plasma, 2 mg/ml, pH 6, 2 mg/ml pH 6.0 Phos 0.05% BAK 0.005% Gly 2%, 3x/day 5 days, read-out: [plasma]): 5.79 nM
- concentration at 1 h (plasma, 2 mg/ml, pH 6, 2 mg/ml pH 6.0 Phos 0.1% BAK 0.005% Gly 2%, 3x/day 5 days, read-out: [plasma]): 5.71 nM
- concentration at 1 h (plasma, 2 mg/ml, pH 6, 2 mg/ml pH 6 Phos 0.2% BAK 0.005% Gly 2% Osmo 257, 3x/day 5 days, read-out: [plasma]): 5.26 nM
- concentration at 1 h (plasma, 2 mg/ml, pH 6, 2 mg/ml pH 6 Phos 0.2% BAK 0.005% Gly 2% PS80 1% Osmo 281, 3x/day 5 days, read-out: [plasma]): 4.94 nM
- concentration at 1 h (plasma, 2 mg/ml, pH 6, 2 mg/ml pH 6.0 Phos 0.2% BAK 0.005% Gly 2%, 3x/day 5 days, read-out: [plasma]): 4.47 nM
- concentration at 1 h (plasma, 2 mg/ml, pH 6.1, 2 mg/ml pH 6.1 Phos […] Osmo 34, 3x/day 4 days, read-out: [plasma]): 4.81 nM
- concentration at 1 h (plasma, 4 mg/ml, pH 6, 4 mg/ml pH 6.0 Phos 0.2% BAK 0.005% Gly 2%, 3x/day 5 days, read-out: [plasma]): 5.84 nM
- concentration at 1 h (plasma, 4 mg/ml, pH 6, 4 mg/ml pH 6.0 Phos 2% BAK 0.005% Gly 2% PS80 1% Tylox 0.2%, 3x/day 5 days, read-out: [plasma]): 8.06 nM
- concentration at 1 h (plasma, 6 mg/ml, pH 5.9, 6 mg/ml pH 5.9 Phos 0.05% BAK 0.005% Gly 2% PS80 1% Tylox 0.1% Polox 0.2% Osmo 270, 3x/day 4 days, read-out: [plasma]): 15.6 nM
- concentration at 1 h (plasma, 6 mg/ml, pH 5.9, 6 mg/ml pH 5.9 Phos 0.1% BAK 0.005% Gly 2% Polox 0.2% Osmo 257, 3x/day 4 days, read-out: [plasma]): 8.43 nM
- concentration at 1 h (retina, 1 mg/ml, pH 6, 1 mg/ml pH 6.0 Phos 0.05% BAK 0.005% Gly 2% PS80 0.01% Tylox 0.2%, 3x/day 5 days, read-out: Mean [retina]): 46.8 nM
- concentration at 1 h (retina, 1 mg/ml, pH 6, 1 mg/ml pH 6.0 Phos 0.2% BAK 0.005% Gly 2% PS80 1% Tylox 0.2%, 3x/day 5 days, read-out: Mean [retina]): 32.7 nM
- concentration at 1 h (retina, 1 mg/ml, pH 6, 1 mg/ml pH 6.0 Phos 0.2% BAK 0.005% Gly 2%, 3x/day 5 days, read-out: Mean [retina]): 90.8 nM

Source: US10307404B1, “Ocular formulations for drug-delivery to the posterior segment of the eye” (priority 2013, dated 2019)
